The subject of assay [1] is Mycobacteria. Description: Susceptibility tests for Mycobacteria (standard methods, National Institutes of Health). The class given is cell-based. The procedure: (§1) The MBC was determined as follows: After 48 hours incubation, tubes without visible growth were vortexed. A sample of 0.01 ml was taken from each tube and streaked on trypticase soy agar plates. After 24 hours, incubation, the number of colonies was counted. The amount of agent required to kill 99.9% of bacterial inoculum in the inoculum was determined as the MBC. Susceptibility tests for Mycobacteria were performed according to standard methods at the national Institutes of Health.

For assay [2], the system named is bacterial pathogens. The following applies: background statement; cited from earlier work.
For assay [3], the system named is Staphylococcus aureus methicillin-resistant wild type T67738. As to the kind of experiment: Susceptibility test (MIC, microtiter serial dilution), methicillin-resistant S. aureus. In kind it is cell-based. The following applies: MIC by serial dilution in Mueller-Hinton broth. The procedure:
(§2) The strains were streaked on blood agar plates (trypticase soy broth containing 5% sheep cells). A single colony was isolated and grown in Mueller-Hinton Broth (MHB) as recommended by the national Committee for Clinical Laboratory Standards for rapidly growing bacteria. Candida species and related fungi were isolated in a similar manner on brain-heart infusion agar (BHI).
(§3) The antibiotic susceptibility profile of each strain was determined using standard microtiter dilution plates obtained from the Clinical Microbiology Laboratory at Ohio State University Hospitals. The Inocula were prepared by suspending a 4 hour log phase growth in MHB visually equal in turbidity of an 0.5 McFarland standard. Inocula were further diluted and added to microdilution trays to achieve a final density of approximately 1×10^5 CFU/ml. The trays were incubated for 16 to 20 hours at 35° C. The highest dilution at which wells remained clear was considered to be the minimum inhibitory concentration (MIC).
(§4) The MIC and minimum bacterial concentration (MBC) of the strains to the active agents were determined by two-fold dilutions in Mueller-Hinton broth. Susceptibility tests for ATCC-obtained microorganisms and clincal isolates of gram positive bacteria including methicillin-susceptible and resistant Staphylococci, Streptococci, Pneumococci and gram negative bacteria, including Enterobacteriaceae, Pseudomonas, Hemophilus and Neisseria, were performed in microtiter plates as described above. The MIC and MBC were determined after 48 hours incubation at 35-37° C. A sample of 0.01 ml was taken from each clear well at the MIC end-point and streaked on trypticase soy agar plates. After 24 hours incubation, the number of colonies was counted. The amount of the agent required to kill 99.9% of the bacteria was determined as the MBC. Susceptibility tests for ATCC isolates of Candida and other fungi were performed in BHI broth according to the NCCLS method. Two ml of MHB containing serial dilutions of the agents compounds were added to 13×100 mm tubes. An inoculum of 0.1 ml (prepared as described above) was then added to each tube. The final inoculum was approximately […]. The tubes were incubated at 35° C. in ambient air and read at 24 hours. The highest dilution at which the tubes remained clear was considered to be the MIC.
as §1
(§5) Compounds of the invention were dissolved in 1 ml of methanol and stored in aliquots at −70° C. They were diluted in Mueller-Hinton broth for final screening. Compositions were tested in 0.1 ml volumes by serial dilution in microtiter plates against Staphylococcus aureus methicillin-sensitive ATCC 29213 and the methicillin-resistant wild type T67738, as described above. The T67738 was resistant to most antimicrobial drugs, including ciprofloxacin.

The test system of assay [4] is Staphylococcus aureus methicillin-sensitive ATCC 29213. Description: Susceptibility test (MIC, microtiter serial dilution), methicillin-sensitive S. aureus. In kind it is cell-based. The following applies: methicillin-sensitive S. aureus ATCC 29213; MIC by serial dilution in Mueller-Hinton broth. The method, then:
as §2, §3, §4, §1, §5

SMILES strings stand for the structures.

Data on ten compounds can be found in US20020115678A1, “Compounds, compositions and methods for treating antibiotic-resistant infections” (priority 1996, published 2002).

With `OC(c1cc(-c2ccc(C(F)(F)F)cc2)nc(-c2ccc(C(F)(F)F)cc2)c1)C1CCCCN1` (centres unmarked) [#153141], in assay [1], the “Effective Concentration Mycobacteria” value worked out at 0.5 µg/mL.

For the compound `OC(c1cc(C(F)(F)F)nc2c(C(F)(F)F)cccc12)C1CCCCN1` (centres unmarked) [Mefloquine], the “activity against bacterial pathogens in vitro” value in assay [2] is given as “some activity”.

With `CCCC(CCC)NCC(O)c1cc(-c2ccc(Cl)cc2)nc(-c2ccc(Cl)cc2)c1` (centres unmarked) [#153136], in assay [3], the “Effective Concentration S. aureous Resist.” value was determined as 3.0 µg/mL.

`OC(c1cc(-c2ccc(Cl)cc2)nc2c(Cl)cc(Cl)cc12)C1CCCCN1` (centres unmarked) [#7936]: in assay [4], the “Effective Concentration S. aureous Sens.” value is under 0.8 µg/mL. Further, the “Effective Concentration S. aureous Resist.” value in assay [3] was under 0.8 µg/mL.

Consider `COc1ccc2nc(-c3ccc(Cl)c(Cl)c3)cc(C(O)C3CCCCN3)c2c1` (centres unmarked) [#259398], for which the “Effective Concentration S. aureous Sens.” value in assay [4] was 1.56 µg/mL. Further, the “Effective Concentration S. aureous Resist.” value in assay [3] is 1.56 µg/mL.

Regarding `CCC1CN2CCC1CC2C(O)c1ccnc2ccc(OC)cc12` (centres unmarked) [#112312], the “Effective Concentration S. aureous Sens.” value in assay [4] came out at 1.56 µg/mL. For the same compound, in assay [3], the “Effective Concentration S. aureous Resist.” value was determined as 1.56 µg/mL. In assay [1], the “Effective Concentration Mycobacteria” value is 128 µg/mL.

For `O=C(c1cc(-c2ccccc2)nc2c(Cl)cc(Cl)cc12)C1CCCCN1` (centres unmarked) [#169446], in assay [4], the “Effective Concentration S. aureous Sens.” value was found to be 1.6 µg/mL. Besides, the “Effective Concentration S. aureous Resist.” value in assay [3] stood at 1.6 µg/mL. Also, the “Effective Concentration Mycobacteria” value in assay [1] was 2 µg/mL.

As for `OC(c1cc(-c2ccc(Cl)cc2)nc2ccccc12)C1CCCCN1` (centres unmarked) [#7929], the “Effective Concentration S. aureous Sens.” value in assay [4] came out at 6.25 µg/mL. Besides, in assay [3], the “Effective Concentration S. aureous Resist.” value is 6.25 µg/mL.

Turning to `OC(c1cc(-c2ccccc2)nc2c(Cl)cc(Cl)cc12)C1CCCCN1` (centres unmarked) [#7930], in assay [4], the “Effective Concentration S. aureous Sens.” value is “<.08 µg/mL”. The “Effective Concentration S. aureous Resist.” value in assay [3] was found to be 1.6 µg/mL. In addition, the “Effective Concentration Mycobacteria” value in assay [1] was 2 µg/mL.

`COc1cc(C(F)(F)F)c2nc(C(F)(F)F)cc(C(O)C3CCCCN3)c2c1` (centres unmarked) [#159314]: the “Effective Concentration S. aureous Sens.” value in assay [4] turned out to be 6.25 µg/mL. Besides, the “Effective Concentration S. aureous Resist.” value in assay [3] was 3.1 µg/mL.
